Results taken from publication PMC12087296 (Microbial Biotechnology, 2025).
Like-named read-outs stand apart in the source and are kept apart here.

Legend:
TlpQ [1] = molecular target: T1, TlpQ (Pseudomonas aeruginosa, UniProt Q9I0I4); test: isothermal titration calorimetry, […]°C; format: binding
TlpQ [2] = molecular target: T1, TlpQ; test: isothermal titration calorimetry, […]°C; format: binding; remark: listed apart in the source

T1 sequence (Q9I0I4 33-363 limits assumed): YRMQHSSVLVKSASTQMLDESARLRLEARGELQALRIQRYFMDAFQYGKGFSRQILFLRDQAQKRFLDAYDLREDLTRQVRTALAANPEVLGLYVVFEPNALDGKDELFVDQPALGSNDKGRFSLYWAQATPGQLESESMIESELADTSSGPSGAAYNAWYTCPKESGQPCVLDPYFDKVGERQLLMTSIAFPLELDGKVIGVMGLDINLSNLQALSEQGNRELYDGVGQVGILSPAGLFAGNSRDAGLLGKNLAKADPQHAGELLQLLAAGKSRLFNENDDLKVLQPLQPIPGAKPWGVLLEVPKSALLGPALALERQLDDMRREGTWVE

Row | Structure (SMILES) | Kd (TlpQ [1]) [µM] | Kd (TlpQ [2]) [µM]
1 | NCCc1ccc(O)c(O)c1 [dopamine] | 137 | –
2 | CNC[C@H](O)c1ccc(O)c(O)c1 [epinephrine] | – | 363
